Experimental data taken from US20030198659A1, “Fibrous pest control” (priority 2001, published 2003).

Columns and labels:
Silverleaf Whiteflies = test: Greenhouse no choice oviposition of whiteflies on squash; assay type: in vivo, Bemisia argentifolii; conditions: spun sucrose trial
Procedure: Whiteflies were tested with a “No Choice” protocol using single treated and untreated summer squash plants var. “Seneca.” Two liter, polyethylene soda container arenas holding a single squash plant in a potting soil mixture were used for whitefly studies. Ten mating pairs of whiteflies were introduced into each arena for all studies. Up to forty arenas, depending on the treatment parameters of a given trial, were run simultaneously under identical ambient conditions. Ambient temperature and time of day were tracked during greenhouse trials. […] Counts were made using a binocular dissecting scope. […] While EVA, graphite and PVA fibers were relatively stable in greenhouse studies, the sucrose fibers were quickly degraded by moisture and formed a sugar coating of the leafs surface with numerous raised and stable sugar droplets. This was an expected result and the efficacy of this fiber application was worthy of testing.

D. radicum = test: Fibers+optical brightener/cabbage maggot field-cage experiment; assay type: in vivo, Delia radicum; conditions: rate 0.033 kg ai/100-m row
Source text: Fibers+optical brightener/cabbage maggot field-cage experiment. Optical (fluorescent) brighteners are widely used in paints, fabrics, plastics and detergents, wherein they enhance the apparent brightness of the material by absorbing UV radiation and emitting light in the blue visual spectrum (Martinez et al. 2000). These brighteners were feasible to use with our existing technology and could potentially increase fiber effectiveness. Thus in mid-May 2000, we tested the efficacy of optical brighteners added to EVA fibers against cabbage maggots in four large (3.7×3.7×1.8-m) Lumite® field cages. The experiment was a randomized complete block design with four replicates (cages).
Within each cage, six rows (3-m long) were formed about 0.3-m apart by hand plowing. Greenhouse-grown two-leaf stage broccoli cv ‘Southern Comet’ was transplanted into the 6 rows within each cage at a plant spacing of 15 cm. One row of broccoli represented a single treatment within each cage. […]
On May 21 , approximately 175 D. radicum pupae were released into each of the four cages and 10% sucrose solution was provided as a food source for emerging adults. […] Total number of larvae and pupae per plant was recorded.

| SMILES | Total # of eggs (total mean number of eggs/plant) (Silverleaf Whiteflies) | Total # of eggs (total mean number of eggs/plant) (Silverleaf Whiteflies; listed as sucrose) | D. radicum larvae per 3-m row of broccoli (D. radicum) |
| --- | --- | --- | --- |
| OC[C@H]1O[C@@](CO)(O[C@H]2O[C@H](CO)[C@@H](O)[C@H](O)[C@H]2O)[C@@H](O)[C@@H]1O [Sugar, sucrose] | 5.867 | 5.87±1.96 |  |
| CCOP(=S)(OCC)Oc1nc(Cl)c(Cl)cc1Cl [Chlorpyrifos drench, chlorpyrifos] |  |  | 6.0 ± 2.3 |
